Measurements reported in patent publication US11878072B2, “Compositions and methods utilizing poly(vinyl alcohol) and/or other polymers that aid particle transport in mucus” (priority 2012, dated 2024).

Description: An aqueous dispersion containing pyrene and one of the stabilizers/surface-altering agents listed above was stirred with milling media until particle size was reduced below 500 nm (as measured by dynamic light scattering).

Sample (relative) <Vmean>rel (relative sample velocity) | Sample <Vmean> (ensemble-average velocity) | Substance
0.17 | 0.94 um/s | Tween 80
−0.02 | 0.42 um/s | Tyloxapol
